Data set [1] deals with Sida spinosa. Put plainly: Herbicidal activity against Sida spinosa in field soil at 62.5 g/ha measured after 3 days by preemergence herbicidal activity tests. The class given is functional.
Data set [2] has as its system Amaranthus viridis. Put plainly: Herbicidal activity against Amaranthus viridis in field soil at 62.5 g/ha measured after 3 days by pre-emergence herbicidal activity tests. It is filed as functional.
The next data set relates to Echinochloa frumentacea. Put plainly: Herbicidal activity against Echinochloa frumentacea (Japanese millet) in plastic pot assessed as killing at 500 g/ha under greenhouse for 20 days by preemergence herbicidal activity tests. It is filed as functional.
Data set [3] relates to Echinochloa crus-galli. Put plainly: Herbicidal activity against Echinochloa crus-galli (barnyard grass) in field soil at 125 g/ha measured after 3 days by preemergence herbicidal activity tests. It is filed as functional.
The test system of data set [4] is Portulaca oleracea. In words: Herbicidal activity against Portulaca oleracea in field soil at 62.5 g/ha measured after 3 days by preemergence herbicidal activity tests. The class given is functional.
Data set [5] concerns Abutilon theophrasti. Put plainly: Herbicidal activity against Abutilon theophrasti (velvetleaf) in plastic pot assessed as killing at 500 g/ha under greenhouse for 20 days by preemergence herbicidal activity tests. It is filed as functional.
The subject of data set [6] is Sida spinosa. Put plainly: Herbicidal activity against Sida spinosa in field soil at 125 g/ha measured after 3 days by preemergence herbicidal activity tests. It is filed as functional.
Data set [7] deals with Abutilon theophrasti. Put plainly: Herbicidal activity against Abutilon theophrasti (velvetleaf) in field soil at 62.5 g/ha measured after 3 days by preemergence herbicidal activity tests. It is filed as functional.
For data set [8], the system named is Gossypium hirsutum. In words: Phytotoxicity against Gossypium hirsutum (cotton) at 125 g/ha by selectivity assay. It is filed as organism-based. As to conditions: in vivo.
The subject of data set [9] is Ipomoea nil. In words: Herbicidal activity against Ipomoea nil (Japanese morning glory) in field soil at 125 g/ha measured after 3 days by pre-emergence herbicidal activity tests. The class given is functional.
In data set [10] the test system is Abutilon theophrasti. In words: Herbicidal activity against Abutilon theophrasti (velvetleaf) in field soil at 125 g/ha measured after 3 days by preemergence herbicidal activity tests. It is filed as functional.
Data set [11] deals with Portulaca oleracea. Put plainly: Herbicidal activity against Portulaca oleracea in field soil at 125 g/ha measured after 3 days by preemergence herbicidal activity tests. The class given is functional.
The subject of data set [12] is Sorghum halepense. Put plainly: Herbicidal activity against Sorghum halepense (Johnson grass) in field soil at 62.5 g/ha measured after 3 days by preemergence herbicidal activity tests. It is filed as functional.
The subject of data set [13] is Ipomoea nil. In words: Herbicidal activity against Ipomoea nil (Japanese morning glory) in field soil at 62.5 g/ha measured after 3 days by pre-emergence herbicidal activity tests. The class given is functional.
In data set [14] the test system is Echinochloa crus-galli. In words: Herbicidal activity against Echinochloa crus-galli (barnyard grass) in field soil at 62.5 g/ha measured after 3 days by preemergence herbicidal activity tests. The class given is functional.
For data set [15], the system named is Eleusine indica. Put plainly: Herbicidal activity against Eleusine indica in field soil at 62.5 g/ha measured after 3 days by preemergence herbicidal activity tests. The class given is functional.
Data set [16] deals with Sorghum halepense. In words: Herbicidal activity against Sorghum halepense (Johnson grass) in field soil at 125 g/ha measured after 3 days by preemergence herbicidal activity tests. It is filed as functional.
For data set [17], the system named is Amaranthus viridis. In words: Herbicidal activity against Amaranthus viridis in field soil at 125 g/ha measured after 3 days by pre-emergence herbicidal activity tests. It is filed as functional.
Data set [18] relates to Eleusine indica. In words: Herbicidal activity against Eleusine indica in field soil at 125 g/ha measured after 3 days by preemergence herbicidal activity tests. The class given is functional.
The test system of data set [19] is Ipomoea nil. Put plainly: Herbicidal activity against Ipomoea nil (Japanese morning glory) in plastic pot assessed as killing at 500 g/ha under greenhouse for 20 days by pre-emergence herbicidal activity tests. It is filed as functional.
For data set [20], the system named is Gossypium hirsutum. In words: Phytotoxicity against Gossypium hirsutum (cotton) at 62.5 g/ha by selectivity assay. It is filed as organism-based. As to conditions: in vivo.

Structures are written as SMILES.

Take `Cc1cn(-c2cccc(C(F)(F)F)c2)/c(=N/C(=O)C(F)F)s1`: the Activity in the data set on Sida spinosa [1], in the data set with Amaranthus viridis [2], in the data set on Echinochloa frumentacea, in the data set with Echinochloa crus-galli [3], in the data set with Portulaca oleracea [4] and with Abutilon theophrasti [5] was 100% throughout. Also, the Activity with Sida spinosa [6] is listed as 100%; in the data set on Abutilon theophrasti [7], 100%; with Gossypium hirsutum [8], 0%; with Ipomoea nil [9], 100%; with Abutilon theophrasti [10], 100%; in the data set with Portulaca oleracea [11], 100%. Moreover, the Activity was found to be 90% in the data set on Sorghum halepense [12]; 100% in the data set with Ipomoea nil [13]; 90% in the data set on Echinochloa crus-galli [14]; 90% in the data set with Eleusine indica [15]; 90% in the data set with Sorghum halepense [16]; 100% with Amaranthus viridis [17]. Moreover, the Activity in the data set with Eleusine indica [18] is on record as 90%; in the data set on Ipomoea nil [19] it was 100%; in the data set with Gossypium hirsutum [20], 0%.
